The results in this text go back to patent publication US7608619B2, “Substituted oxazole compounds with analgesic activity” (Gruenenthal GmbH, priority 2005, dated 2009).

This assay deals with T1, human μ-opiate receptor (Homo sapiens, UniProt P35372).
T1 construct: purchased Nen company, Zaventem, Belgium RB-HOM; host or cells: CHO-K1 cells (membrane preparation)
T1 sequence (P35372 whole entry): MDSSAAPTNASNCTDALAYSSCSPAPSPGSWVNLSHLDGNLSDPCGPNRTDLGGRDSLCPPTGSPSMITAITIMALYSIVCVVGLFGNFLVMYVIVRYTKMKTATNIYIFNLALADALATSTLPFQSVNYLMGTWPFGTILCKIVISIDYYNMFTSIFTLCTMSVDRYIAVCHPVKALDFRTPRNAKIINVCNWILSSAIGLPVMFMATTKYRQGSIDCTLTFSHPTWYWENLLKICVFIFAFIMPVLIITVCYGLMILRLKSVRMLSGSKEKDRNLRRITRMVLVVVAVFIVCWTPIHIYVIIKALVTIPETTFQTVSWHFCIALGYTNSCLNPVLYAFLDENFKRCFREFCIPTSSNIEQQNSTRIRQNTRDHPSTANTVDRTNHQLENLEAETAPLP
In words: Affinity for the human μ-opiate receptor ([3H]-naloxone displacement, SPA, CHO-K1 membrane preparation). The note with it: test substance 1 μmole/l; displacement of 1 nmole/l [3H]-naloxone; percentage inhibition of the specific binding; read-out: μ-opioid receptor, % inhibition [1 μM]. The procedure, abridged: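 [3H]-naloxone (1 nmol/l) displacement by SPA with WGA beads, using membranes of CHO-K1 cells expressing the receptor, in 50 mmol/l Tris-HCl with 0.05% azide and 0.06% BSA; 90 min at room temperature. Non-specific binding defined with 25 μmol/l naloxone. Value is % inhibition of specific binding at 1 μmol/l test compound.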
Turning to `CN(C)C(c1cccs1)C1CCC(C(c2nc(Cc3ccccc3)c(N3CCC(Cc4ccccc4)CC3)o2)N2CCN(Cc3ccccc3)CC2)CC1` (centres unmarked) [compound 32, ({4-[[4-benzyl-5-(4-benzylpiperidin-1-yl)-oxazol-2-yl]-(4-benzylpiperazin-1-yl)-methyl]-cyclohexyl}-thiophen-2-yl-methyl)-dimethylamine], the inhibition – broadly, the share of the control response that was lost under treatment – at 1 µM came out at 75%.
To `COc1ccc(N2CCN(c3oc(C(CC4CCC(C(c5cccs5)N(C)C)CC4)N4CCOCC4)nc3Cc3ccccc3)CC2)cc1` (centres unmarked) [compound 159, {[4-(2-{4-benzyl-5-[4-(4-methoxyphenyl)-piperazin-1-yl]-oxazol-2-yl}-2-morpholin-4-yl-ethyl)-cyclohexyl]-thiophen-2-yl-methyl}-dimethylamine] belongs 94%; to `CCN(CC)C(CC1CCC(C(c2cccs2)N(C)C)CC1)c1nc(Cc2ccccc2)c(N(C)Cc2ccccc2)o1` (centres unmarked) [compound 80, Benzyl-(4-benzyl-2-{1-diethylamino-2-[4-(dimethylaminothiophen-2-yl-methyl)-cyclohexyl]-ethyl)-oxazol-5-yl)-methylamine], 93%; to `CN(C)C(c1ccc(Cl)cc1)C1CCC(C(c2nc(Cc3ccccc3)c(N3CCCC3)o2)N2CCOCC2)CC1` (centres unmarked) [compound 129, [{4-[(4-benzyl-5-pyrrolidin-1-yl-oxazol-2-yl)-morpholin-4-yl-methyl]-cyclohexyl}-(4-chlorophenyl)-methyl]-dimethylamine], 75%.
The same measure for `CCN(CC)C(c1nc(Cc2ccccc2)c(N2CCC(C)CC2)o1)C1CCC(C(c2ccc(Cl)cc2)N(C)C)CC1` (centres unmarked) [compound 20, ([4-benzyl-5-(4-methylpiperidin-1-yl)-oxazol-2-yl]-{4-[(4-chlorophenyl)-dimethylaminomethyl]-cyclohexyl}-methyl)-diethylamine]: 63%.
The same measure for `CC1CC(C)CN(c2oc(C(C3CCC(C(c4ccc(F)cc4)N(C)C)CC3)N(C)c3ccccc3)nc2Cc2ccccc2)C1` (centres unmarked) [compound 37, ([4-benzyl-5-(3,5-dimethylpiperidin-1-yl)-oxazol-2-yl]-{4-[dimethylamino-(4-fluorophenyl)-methyl]-cyclohexyl}-methyl)-methylphenylamine]: 68%; for `CN(Cc1ccccc1)c1oc(C(C2CCC(C(c3cccs3)N(C)C)CC2)N2CCCCC2)nc1Cc1ccccc1` (centres unmarked) [compound 25, Benzyl-(4-benzyl-2-{[4-(dimethylamino-thiophen-2-yl-methyl)-cyclohexyl]-piperidin-1-yl-methyl}-oxazol-5-yl)-methylamine]: 80%.
As to `CN(CCc1ccccc1)c1oc(C(CC2CCC(C(c3cccs3)N(C)C)CC2)N2CCCCC2)nc1Cc1ccccc1` (centres unmarked) [compound 108, (4-benzyl-2-{2-[4-(dimethylaminothiophen-2-yl-methyl)-cyclohexyl]-1-piperidin-1-yl-ethyl}-oxazol-5-yl)-methylphenethylamine], the inhibition at 1 µM came out at 88%.
The same measure for `CCN(CC)c1oc(C(C2CCC(C(c3cccs3)N(C)C)CC2)N2CCCCC2)nc1Cc1ccccc1` (centres unmarked) [compound 47, (4-benzyl-2-{[4-(dimethylamino-thiophen-2-yl-methyl)-cyclohexyl]-piperidin-1-yl-methyl}-oxazol-5-yl)-diethylamine]: 73%.
To `CC1CC(C)CN(c2oc(C(C3CCC(C(c4ccc(Cl)cc4)N(C)C)CC3)N(C)c3ccccc3)nc2Cc2ccccc2)C1` (centres unmarked) [compound 42, ([4-benzyl-5-(3,5-dimethylpiperidin-1-yl)-oxazol-2-yl]-{4-[(4-chlorophenyl)-dimethylaminomethyl]-cyclohexyl}-methyl)-methylphenylamine] belongs 79%; to `COc1ccc(N2CCN(c3oc(C(C4CCC(C(c5ccc(Cl)cc5)N(C)C)CC4)N4CCOCC4)nc3Cc3ccccc3)CC2)cc1` (centres unmarked) [compound 131, [[4-({4-benzyl-5-[4-(4-methoxyphenyl)-piperazin-1-yl]-oxazol-2-yl}-morpholin-4-yl-methyl)-cyclohexyl]-(4-chlorophenyl)-methyl]-dimethylamine], 64%.
